Reference: the NIST ThermoML archive (doi:10.1021/je700021f)

Test: xn = mol fraction of the nth substance listed
Details: 101 kPa, Liquid, Pulse-echo method

CCCCCCCCCCl [1-chlorononane] + CCCCCCCCC
speed of sound [m/s]
Details | x2 = 0 | x2 = 0.1 | x2 = 0.3 | x2 = 0.5 | x2 = 0.7 | x2 = 0.8 | x2 = 0.85 | x2 = 0.9
293.15 K | 1297.2 | 1283.1 | 1268.5 | 1254.2 | 1243.5 | 1232.8 | 1231.8 | 1222.6
298.15 K | 1278.2 | 1264.2 | 1249 | 1235 | 1223.5 | 1212.9 | 1211.9 | 1203.3
303.15 K | 1259.5 | 1245.4 | 1229.8 | 1215.9 | 1203.6 | 1193 | 1192.1 | 1184.1
308.15 K | 1240.9 | 1226.7 | 1210.6 | 1197 | 1183.9 | 1173.3 | 1172.4 | 1165
313.15 K | 1222.5 | 1208.1 | 1191.7 | 1178.1 | 1164.3 | 1153.7 | 1152.8 | 1145.9
318.15 K | 1204.3 | 1189.7 | 1172.8 | 1159.3 | 1144.9 | 1134.2 | 1133.4 | 1126.9
323.15 K | 1186.3 | 1171.4 | 1154.1 | 1140.6 | 1125.6 | 1114.9 | 1114 | 1107.9
328.15 K | 1168.4 | 1153.2 | 1135.6 | 1122 | 1106.5 | 1095.6 | 1094.7 | 1088.9
333.15 K | 1150.7 | 1135.2 | 1117.1 | 1103.6 | 1087.5 | 1076.5 | 1075.5 | 1070
338.15 K | 1133.2 | 1117.2 | 1098.9 | 1085.2 | 1068.7 | 1057.5 | 1056.4 | 1051.2
343.15 K | 1115.9 | 1099.4 | 1080.7 | 1066.9 | 1050 | 1038.6 | 1037.4 | 1032.4
348.15 K | 1098.8 | 1081.8 | 1062.7 | 1048.7 | 1031.5 | 1019.8 | 1018.5 | 1013.7
353.15 K | 1081.9 | 1064.2 | 1044.9 | 1030.6 | 1013.1 | 1001.1 | 999.7 | 995
358.15 K | 1065.1 | 1046.8 | 1027.2 | 1012.6 | 994.9 | 982.6 | 981 | 976.3
363.15 K | 1048.5 | 1029.5 | 1009.6 | 994.7 | 976.8 | 964.2 | 962.4 | 957.8
368.15 K | 1032.2 | 1012.3 | 992.2 | 976.9 | 958.9 | 945.8 | 943.9 | 939.2
373.15 K | 1015.9 | 995.2 | 974.9 | 959.2 | 941.1 | 927.7 | 925.5 | 920.7
378.15 K | 999.1 | 978.3 | 957.8 | 941.6 | 923.5 | 909.6 | 907.2 | 902.3
383.15 K | 982.7 | 961.5 | 940.8 | 924.1 | 906 | 891.6 | 889 | 883.9
388.15 K | 966.4 | 944.8 | 924 | 906.7 | 888.7 | 873.8 | 870.9 | 865.6
393.15 K | 950.3 | 928.3 | 907.3 | 889.4 | 871.5 | 856.1 | 852.9 | 847.3
398.15 K | 934.3 | 911.8 | 890.7 | 872.1 | 854.5 | 838.5 | 835 | 829.1
403.15 K | 918.4 | 895.5 | 874.3 | 855 | 837.6 | 821 | 817.2 | 810.9
408.15 K | 902.6 | 879.3 | 858 | 838 | 820.9 | 803.6 | 799.5 | 792.7
413.15 K | 887 | 863.3 | 841.9 | 821.1 | 804.3 | 786.3 | 781.9 | 774.6
418.15 K | 871.4 | 847.4 | 825.9 | 804.3 | 787.8 | 769.2 | 764.4 | 756.6
423.15 K | 856 | 831.5 | 810 | 787.5 | 771.6 | 752.2 | 747 | 738.6
